Assay results as given in US20230137849A1, “USE OF A COMPOUND OF THE DIURETICS CLASS FOR TREATING CANCER” (AZELEAD, priority 2017, published 2023).

Assays:
[1] = tested on: hematopoietic stem cells CD41:GFP accumulated in the AGM; experiment: Zebrafish embryo test: HSC accumulated in the AGM (initiation of the metastatic process); assay type: in vivo; conditions: althiazide 10 μM (FIG. 2; b187 prints 10 μl), embryos 25 hpf treated 24 h, vs DMSO
Source text: A method for determining whether a molecule is capable of treating cancer in the pre-metastatic state has been described in international application WO 2011/007259. This method consists in isolating molecules capable of inhibiting the emergence of hematopoietic stem cells from the floor of the aorta without cell division, but by endothelial-to-hematopoietic transition. This emergence involves the loss of cell polarity of emerging cells, the loss of cellular junctions with these neighboring cells and the acquisition of migratory properties. This model is used because it mimics each stage of the epithelial-mesenchymal transition, the first stage of cancer metastasis. The endothelial-to-hematopoietic transition takes place in a region of the embryo called Aorta-Gonad-Mesonephros (AGM).
In order to evaluate the inhibition of the endothelial-to-hematopoietic transition, transgenic CD41:GFP (green fluorescent protein) embryos are used. HSCs express GFP under the control of the CD41 promoter, which allows them to be monitored in vivo under a fluorescence microscope. The read-out is the number of hematopoietic stem cells CD41:GFP accumulated in the AGM (mimicking the initiation of the metastatic process) and/or in the CHT of the zebrafish embryo (mimicking the progression of the metastatic process). […]

MDA-MB-231 cells = experiment: Migration test on MDA-MB-231 cells (scratch test); assay type: cell-based, human; conditions: 10, 50 and 100 μM, 18 h migration, FIG. 10
Procedure: Cell migration assays on the MDA-MB-231 cell line are performed in vitro in 96-well plates. The MDA-MB-231 cells were seeded at the density of 50000 cells per well, to form a monolayer. The cells are maintained in a DMEM culture medium supplemented with 0.2% fetal calf serum and incubated at 37° C., 5% CO2 and 1% O2 for 24 hours. The cell monolayer is injured with a pipette tip. The cells are then rinsed with PB S to remove the cells in suspension and the different treatments are added, as well as DMEM supplemented with 10% FCS. The cells are incubated for 18 hours at 37° C., 5% CO2 and 20% O2.
A first series of images of each well (center of the well) was carried out at the beginning of the experiment (t=0) and after 18 hours of migration (t=18) using a 4× objective Nikon microscope. The images were analyzed using ImageJ software (National Institutes of Health, USA).
The treatments were carried out in triplicate and the manipulation was carried out 3 times. […]
A first series of images of each well (center of the well) is performed at the beginning of the experiment (t=0) and after 18 h of migration (t=18) using a Nikon microscope −4× lens. The images were analyzed using Image J software (National Institute of Health, USA)

SNAIL = experiment: q-RT-PCR expression of EMT markers in MDA-MB-231 cells under hypoxia: SNAIL; assay type: cell-based, human; conditions: althiazide 100 μM, hypoxic conditions (1% O2), vs control, FIG. 11
Procedure: (§1) The cell cultures are carried out on human breast cancer epithelial cell lines MDA-MB-231 (HTB-26™), resulting from metastases present in a pleural effusion of a patient with a mammary adenocarcinoma. This line is used as a triple negative cancer cell model (no expression of ER-type nuclear estrogen receptors, nuclear progesterone receptors or overexpression of the oncogene encoding HER2 protein (Human Epidermal Growth factor Receptor-2).
(§2) The cells were cultured in DMEM medium (Eurobio, Fance) supplemented with 10% fetal calf serum (FCS) (Eurobio, Fance) at 37° C., 5% CO2. The medium was changed every 3 days.
(§3) The cells were placed in a controlled atmosphere at 1% oxygen 24 hours before the application of the different treatments.
(§4) The expression of the mRNAs is measured by the q-RT-PCR method. The cells were seeded at the density of 500,000 cells/well in 6-well plates. After 24 hours at 37° C., 5% CO2 and 1% O2, the medium was renewed and added the various treatments. RNA was isolated using TRI Reagent® (sigma), assayed and retro-transcribed into complementary DNA using the PrimeScript RT Reagent Kit (Takara). The expression levels of the mRNA of the genes of interest were determined by quantitative PCR (LightCycler® 480 Instrument II) with the primers listed in Table 2: […]
(§5) The results are calculated using the Delta Delta Ct (Δ ΔCt) method.

N-CADHERIN = experiment: q-RT-PCR expression of EMT markers in MDA-MB-231 cells under hypoxia: N-CADHERIN; assay type: cell-based, human; conditions: althiazide 100 μM, hypoxic conditions (1% O2), vs control, FIG. 11
Procedure: as §1, §2, §3, §4, §5

Structure (SMILES): C=CCSCC1Nc2cc(Cl)c(S(N)(=O)=O)cc2S(=O)(=O)N1 (racemic) [althiazide]
- number of HSC accumulated in the AGM compared with reference embryos; local migration of HSC [1]: greater
- number of HSC accumulated in the AGM compared with reference embryos; local migration of HSC ([1]; listed as thiazide): reduction of the junction loss and the local migration of HSC
- decrease of the migration (MDA-MB-231 cells): ~50%
- change in expression of SNAIL (SNAIL): −19%
- change in expression of N-CADHERIN (N-CADHERIN): −33%
